# Laboratory results from patent US11135244B2, “Stem cell culture media and methods of enhancing cell survival” (Fate Therapeutics, Inc., priority 2013, dated 2021).
# Legend:
# [1] = system: CXCR4 surface protein within Lin-CD45lowCD34+7AAD- cells; assay: CXCR4 surface protein on cord blood mononuclear cells after dmPGE2 treatment; assay type: cell-based; conditions: 10 μM dmPGE2 two hours at 37° C., then additional one hour incubation without dmPGE2
# Procedure: Cord blood mononuclear cells (All Cells, Emeryville, Calif.) were thawed in a 37° C. water bath and immediately diluted with 10 mL of pre-warmed IMDM with 10% fetal calf serum and 5 uL of DNase (Life Technologies, Grand Island, N.Y.). The cells were split three ways and centrifuged at 300×g for 10 minutes. The cells were resuspended in STEMSPAN-ACF (Media 1), STEMSPAN-ACF with 5% Dextran-40 (Media 2) or STEMSPAN-ACF with 10% Dextran-40 (Media 3). A subset, 1×10^6 cells, from Media 1 were kept at 4° C. and immediately stained with Lineage Mix-FITC, CXCR4-PE, CD34-APC, and CD45-V450 antibodies from BD Biosciences. All 3 media conditions were split into a vehicle-treated cohort and a 10 μM dmPGE2-treated cohort and incubated at 37° C. for 2 hours. The cells were washed with the same media and incubated at 37° C. for an additional 1 hour. Each cohort was stained with the same antibodies as indicated above. Levels of CXCR4 surface protein within the Lin-CD45^lowCD34+7AAD-cells were analyzed.
# CXCR4 gene expression = CXCR4 gene expression after incubation with dmPGE2; assay type: cell-based; conditions: 10 μM dmPGE2 for two hours at 37° C.
smiles,measurement,setting,value
"CCCCC(C)(C)[C@H](O)/C=C/[C@H]1[C@H](O)CC(=O)[C@@H]1C/C=C\CCCC(=O)O [dmPGE2, 16,16-dimethyl PGE2]",CXCR4 surface protein,[1],increased
same,CXCR4 gene expression,CXCR4 gene expression,increased
